# Experimental data reported in US6803475B2, “Fluorous tagging compounds and methods of use thereof” (University of Pittsburgh, priority 2000, dated 2004).
# Tests used:
# Assay type in all cases: physicochemical
# [1] = Stability in THF-d8 / 0.25 M NaOD (3:1), determined by 1H NMR; details: THF-d8 and 0.25 M NaOD (3:1)
# Experimental: (§1) The stability of these alkoxysilyl ethers appeared to be determined by the steric bulk around the silicon atom. While 34a was not very stable (t1/2˜6 min) under the acidic reaction conditions, 34b (t1/2˜4 h) was moderately stable, and the tert-butyl-phenyl-1H,1H,2H,2H-heptadecafluorodecyloxysilyl ether 37a (t1/2>>6 h) was very stable. […] As a result of the enhanced electrophilicity of the silicon atom in bis-alkoxysilyl ethers, the latter are generally more labile toward nucleophiles and bases than either the TBDPS or the tert-butyldimethylsilyl (TBDMS) groups. […] In contrast, the stability under protic acidic conditions in 5% p-TsOH/MeOH (t1/2˜40 min) is more limited.
# [2] = Stability of fluorous alkoxysilyl ethers in CH2Cl2/trifluoroacetic acid (5%), remaining ether analysed by LC-MS; details: aliquots quenched with MeOH/pyridine (20:1)
# Experimental: Fluorous alkoxysilyl ethers (34a,b, 37a) were each dissolved in a mixture of CH2Cl2/trifluoroacetic acid (5%), and aliquots of these solutions were quenched with MeOH/pyridine (20:1). The quenched reaction mixtures were analyzed for remaining 34a,b and 37a by LC-MS (Liquid chromatography-mass spectrometry). Reactions and quenching were performed on a HP 7868 solution phase synthesizer. Analysis of quenched samples was done with a HP 1100 series LC/MS. Samples eluted were compared with unreacted control samples. (Rt [min]: 2.6 (34a), 2.9 (34b), 2.3 (37a); Novapak C18, 3.9×150 mm, 1.2 mL/min, MeOH as eluent).
# as §1
# Reactions and quenching were performed on a HP 7868 solution phase synthesizer. […]
# [3] = Stability under protic acidic conditions in 5% p-TsOH/MeOH
# Experimental: as §1
structure (smiles),measurement,setting,value
"CC(C)(C)[Si](OCCC(F)(F)C(F)(F)C(F)(F)C(F)(F)C(F)(F)C(F)(F)C(F)(F)C(F)(F)F)(OC1CCCCC1)c1ccccc1 (stereo not drawn) [37a, tert-butyl-phenyl-1H,1H,2H,2H-heptadecafluorodecyloxysilyl ether]",t1/2 in mildly basic aqueous medium,[1],48 h
same,t1/2 under the acidic reaction conditions,[2],> 6 h
same,t1/2 under protic acidic conditions,[3],~0.667 h
